Test results published in article PMC7822874, “Chemoprotective antimalarials identified through quantitative high-throughput screening of Plasmodium blood and liver stage parasites” (Scientific Reports, 2021).
Like-named read-outs stand apart in the source and are kept apart here.

Tests used:
Format in all cases: cell-based, Plasmodium falciparum
[1] = tested on: P. falciparum Dd2 (clone B2) asexual blood stage parasites; assay: P. falciparum Dd2 asexual blood stage SYBR Green-I 72 h proliferation assay (qHTS); details: Plasmodium falciparum
[2] = tested on: P. falciparum Dd2 Cytb G131S; assay: SYBR Green ABS proliferation assay, NCGC00374598 selected clone C11; details: Plasmodium falciparum
Method in brief: (§1)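 Drug-selected Dd2 clones bearing the cytochrome b mutation were cultured at 37 °C under 5% CO2, 5% O2, 90% N2. Growth was read at 72 h by SYBR Green-I fluorescence, normalized to controls as percent response.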

[3] = tested on: P. falciparum Dd2 Cytb V259L; assay: SYBR Green ABS proliferation assay, NCGC00473217 selected clone F06; details: for AC50: Plasmodium falciparum
Method in brief: as §1

[4] = tested on: P. falciparum Dd2 Cytb A122D; assay: SYBR Green ABS proliferation assay, NCGC00473217 selected clone F12; details: for AC50: Plasmodium falciparum
Method in brief: as §1

[5] = tested on: P. falciparum Dd2 Cytb F123L; assay: SYBR Green ABS proliferation assay, NCGC00473217 selected clone G08; details: for AC50: Plasmodium falciparum
Method in brief: as §1

[6] = DD2, Dd2 parental, Hill fit, averaged from three independent replicates, top concentration 29 µM, read-out: Average AC50 (Log[M]), Dd2 (converted)
[7] = DD2, […], averaged from three independent replicates, top concentration 29 µM, read-out: Average AC50 (Log[M]), NCGC00374598 clone C11 (Cytb G131S) (converted)
[8] = DD2, […], averaged from three independent replicates, top concentration 29 µM, read-out: Average AC50 (Log[M]), NCGC00473217 clone F06 (Cytb V259L) (converted)
[9] = DD2, […], averaged from three independent replicates, top concentration 29 µM, read-out: Average AC50 (Log[M]), NCGC00473217 clone F12 (Cytb A122D) (converted)
[10] = DD2, […], averaged from three independent replicates, top concentration 29 µM, read-out: Average AC50 (Log[M]), NCGC00473217 clone G08 (Cytb F123L) (converted)

| SMILES | AC50 [1, 6] [M] | AC50 [2, 7] [M] | AC50 [3, 8] [M] | AC50 [4, 9] [M] | AC50 [5, 10] [M] | also measured |
| --- | --- | --- | --- | --- | --- | --- |
| CCCN1C(CC(C)C)=N[S+](=O)([O-])c2cc(NC(=O)c3ccc(C)s3)ccc21 [NCGC00510977-01] | 8.61e-06 | 8.93e-06 | 1.04e-05 | 7.96e-06 | 8.93e-06 | – |
| CCCN1C(CC(C)C)=N[S+](=O)([O-])c2cc(NC(=O)c3coc4ccccc34)ccc21 [NCGC00521147-01] | 7.38e-06 | 8.43e-06 | 2.24e-06 | 5.64e-06 | 8.93e-06 | – |
| CCCN1C(CC(C)C)=N[S+](=O)([O-])c2cc(NC(=O)c3ccccc3F)ccc21 [NCGC00523540-01] | 4.66e-06 | 4.48e-06 | 2.16e-06 | 2.82e-06 | 2.72e-06 | – |
| CCCN1C(CC(C)C)=N[S+](=O)([O-])c2cc(NC(=O)c3ccno3)ccc21 [NCGC00521048-01] | 6.1e-06 | 5.02e-06 | 3.17e-06 | 4.66e-06 | 1.89e-07 | – |
| CCCN1C(CC(C)C)=N[S+](=O)([O-])c2cc(NC(=O)COc3ccccc3)ccc21 [NCGC00521094-01] | 7.67e-06 | 8.28e-06 | 6.84e-06 | 1.36e-05 | 6.1e-06 | – |
| CCCN1C(CC(C)C)=N[S+](=O)([O-])c2cc(NC(=O)c3cccc(F)c3)ccc21 [NCGC00523538-01] | 3.85e-06 | 2.08e-06 | 1e-06 | 2.72e-06 | 1.12e-05 | – |
| CCCN1C(CC(C)C)=N[S+](=O)([O-])c2cc(NC(=O)c3cnn4cccnc34)ccc21 [NCGC00521136-01] | 1.22e-05 | 7.96e-06 | 8.28e-06 | 6.84e-06 | 1.17e-05 | – |
| CCCN1C(CC(C)C)=N[S+](=O)([O-])c2cc(NC(=O)c3cc(C)on3)ccc21 [NCGC00521054-01] | 8.93e-06 | 1.26e-05 | 2e-06 | 2e-06 | 4.48e-06 | – |
| CCCN1C(CC(C)C)=N[S+](=O)([O-])c2cc(N[S+](=O)([O-])c3ccc4ccccc4c3)ccc21 [NCGC00521141-01] | 1.26e-05 | 7.1e-06 | 5.32e-06 | 1.12e-05 | 7.1e-07 | – |
| CCCN1C(CC(C)C)=N[S+](=O)([O-])c2cc(NC(=O)c3ncco3)ccc21 [NCGC00521053-01] | 1.08e-05 | 1.12e-05 | 9.66e-06 | 7.96e-06 | 1.42e-05 | – |
| CCCN1C(CC(C)C)=N[S+](=O)([O-])c2cc(NC(=O)C3CCCC3)ccc21 [NCGC00521158-01] | 2.72e-06 | 4.15e-06 | 2.16e-06 | 5.22e-06 | 1.17e-05 | – |
| CCCN1C(CC(C)C)=N[S+](=O)([O-])c2cc(NC(=O)c3cccc(OC(F)(F)F)c3)ccc21 [NCGC00531537-01] | 1.12e-05 | 1.12e-05 | 3.99e-06 | 1e-05 | 7.96e-06 | – |
| Cc1cc(Nc2ccc(S(F)(F)(F)(F)F)cc2)n2nc(C(C)(F)F)nc2n1 [DSM265, reference compound] | – | – | – | – | – | AC50 ([1]; DD2, 72 h, SYBR Green 72 h, WT Dd2-B2, read-out: AC50 Log[M] ± SD, Dd2-B2 (parental line) (converted)): 3.8e-08 M; AC50 ([1]; DD2, Suppl Table 6, read-out: AC50 (mM), WT (Dd2-B2)): 3.8e-08 M; AC50 ([2]; DD2, NCGC00374598 selected clone, read-out: AC50 Log[M] ± SD, Cytb G131S (converted)): 2.4e-08 M; AC50 ([2]; DD2, Suppl Table 6, read-out: AC50 (mM), Dd2 Cytb G131S): 2.4e-08 M; susceptibility of V259L variant compared to parental line [3]: unchanged; AC50 ([3]; DD2, NCGC00473217 selected clone, read-out: AC50 Log[M] ± SD, Cytb V259L (converted)): 3.16e-08 M; AC50 ([3]; DD2, Suppl Table 6, read-out: AC50 (mM), Dd2 Cytb V259L): 3.16e-08 M; susceptibility of A122D mutant compared to parental line [4]: significantly more susceptible; AC50 ([4]; DD2, NCGC00473217 selected clone, read-out: AC50 Log[M] ± SD, Cytb A122D (converted)): 1.41e-08 M; AC50 ([4]; DD2, Suppl Table 6, read-out: AC50 (mM), Dd2 Cytb A122D): 1.41e-08 M; susceptibility of F123L mutant compared to parental line [5]: significantly more susceptible; AC50 ([5]; DD2, NCGC00473217 selected clone, read-out: AC50 Log[M] ± SD, Cytb F123L (converted)): 1.95e-08 M; AC50 ([5]; DD2, Suppl Table 6, read-out: AC50 (mM), Dd2 Cytb F123L): 1.95e-08 M |
| CCCN1C(CC(C)C)=N[S+](=O)([O-])c2cc(NC(=O)c3ccccn3)ccc21 [NCGC00521133-01] | 9.29e-06 | 1.04e-06 | 7.67e-06 | 1.89e-06 | 1.04e-05 | – |
| CCCN1C(CC(C)C)=N[S+](=O)([O-])c2cc(NC(=O)C3CCCCC3)ccc21 [NCGC00521107-01] | 6.32e-06 | 6.32e-06 | 5.02e-06 | 1.04e-05 | 8.93e-06 | – |
| CCCN1C(CC(C)C)=N[S+](=O)([O-])c2cc(NC(=O)c3ccc4ccccc4n3)ccc21 [NCGC00521161-01] | 5.97e-06 | 7.96e-07 | 2.24e-06 | 3.99e-06 | 2.82e-06 | – |
| CCCN1C(CC(C)C)=N[S+](=O)([O-])c2cc(NC(=O)C3CCC3)ccc21 [NCGC00521095-01] | 3.17e-06 | 3.36e-07 | 2.99e-06 | 1e-05 | 6.7e-06 | – |
| CCCN1C(CC(C)C)=N[S+](=O)([O-])c2cc(NC(=O)c3cc4ncccn4n3)ccc21 [NCGC00521137-01] | 1e-05 | 5.97e-06 | 7.38e-06 | 9.29e-06 | 1.04e-05 | – |
| CCCN1C(CC(C)C)=N[S+](=O)([O-])c2cc(NC(=O)c3cn(-c4ccccc4)cn3)ccc21 [NCGC00521102-01] | 7.67e-06 | 2.62e-07 | 2.99e-06 | 3.56e-08 | 3.56e-06 | – |
| CCCN1C(CC(C)C)=N[S+](=O)([O-])c2cc(NC(=O)c3cc4c(s3)CCC4)ccc21 [NCGC00521150-01] | 1.59e-05 | 1.04e-05 | 1.12e-05 | 1.59e-05 | 1.12e-05 | – |
| CCCN1C(CC(C)C)=N[S+](=O)([O-])c2cc(NC(=O)c3ccccc3OC(F)(F)F)ccc21 [NCGC00531535-01] | 1.59e-05 | 8.93e-06 | 9.29e-06 | 1.08e-05 | 1.04e-05 | – |
| CCCN1C(CC(C)C)=N[S+](=O)([O-])c2cc(NC(=O)c3nccs3)ccc21 [NCGC00521040-01] | 9.29e-06 | 8.28e-07 | 1.31e-05 | 7.1e-06 | 6.7e-06 | – |
| CC(C)CC1=N[S+](=O)([O-])c2cc(NC(=O)c3ccco3)ccc2N1C [NCGC00510958-01] | 5.32e-06 | 2.82e-06 | 1.26e-05 | 5.02e-06 | 7.96e-07 | – |
| CCCN1C(CC(C)C)=N[S+](=O)([O-])c2cc(NC(=O)c3ccc(F)cc3F)ccc21 [NCGC00523543-01] | 3.99e-06 | 2e-06 | 3.36e-06 | 1.93e-06 | 3.56e-07 | – |
| CCCN1C(CC(C)C)=N[S+](=O)([O-])c2cc(NC(=O)c3ccc(Cl)s3)ccc21 [NCGC00523535-01] | 1.53e-06 | 1e-06 | 7.1e-06 | 5.86e-06 | 9.66e-06 | – |
